Data reported in PubChem BioAssay AID1963849 (Molecular Pharmacology Branch, DTP, NCI, 2024).

Test system: 299254-011-R-J1-PDC complex spheroid viability
Experiment: Anticancer human tumor 299254-011-R-J1-PDC patient-derived melanoma cell line growth inhibition [POLQ]
Details: for IC50: curve of first compound; for viability, T/C: stronger effect = lower value; active = viability on the fitted dose curve at most 10% of control; inactive = the rest
Outline: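 Patient-derived tumour cells were co-cultured with HUVEC and mesenchymal stem cells as multicellular spheroids at 37 °C. They were treated with POLQ inhibitors (novobiocin, ART-558, RP6685) alone or combined with other agents. Top concentrations were at or near clinical Cmax (otherwise 10 microM; SN-38 at 1 microM), decreasing in half-log steps.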

[1] = second compound 0.0316 µM, first compound 0.0316 µM
[2] = second compound 0.0316 µM, first compound 0.1 µM
[3] = second compound 0.0316 µM, first compound 0.316 µM
[4] = second compound 0.0316 µM, first compound 1 µM
[5] = second compound 0.0316 µM, first compound 3.16 µM
[6] = second compound 0.0316 µM, first compound 10 µM
[7] = second compound 0.1 µM, first compound 0.0316 µM
[8] = second compound 0.1 µM, first compound 0.1 µM
[9] = second compound 0.1 µM, first compound 0.316 µM
[10] = second compound 0.1 µM, first compound 1 µM
[11] = second compound 0.1 µM, first compound 3.16 µM
[12] = second compound 0.1 µM, first compound 10 µM
[13] = second compound 0.316 µM, first compound 0.0316 µM
[14] = second compound 0.316 µM, first compound 0.1 µM
[15] = second compound 0.316 µM, first compound 0.316 µM
[16] = second compound 0.316 µM, first compound 1 µM
[17] = second compound 0.316 µM, first compound 3.16 µM
[18] = second compound 0.316 µM, first compound 10 µM
[19] = second compound 1 µM, first compound 0.0316 µM
[20] = second compound 1 µM, first compound 0.1 µM
[21] = second compound 1 µM, first compound 0.316 µM
[22] = second compound 1 µM, first compound 1 µM
[23] = second compound 1 µM, first compound 3.16 µM
[24] = second compound 1 µM, first compound 10 µM
[25] = second compound 3.16 µM, first compound 0.0316 µM
[26] = second compound 3.16 µM, first compound 0.1 µM
[27] = second compound 3.16 µM, first compound 0.316 µM
[28] = second compound 3.16 µM, first compound 1 µM
[29] = second compound 3.16 µM, first compound 3.16 µM
[30] = second compound 3.16 µM, first compound 10 µM
[31] = second compound 10 µM, first compound 0.0316 µM
[32] = second compound 10 µM, first compound 0.1 µM
[33] = second compound 10 µM, first compound 0.316 µM
[34] = second compound 10 µM, first compound 1 µM
[35] = second compound 10 µM, first compound 3.16 µM
[36] = second compound 10 µM, first compound 10 µM
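Note: spheroids exposed to drugs for one week before measurement.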
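Throughout, for viability, T/C: percent viability relative to DMSO vehicle control taken as 100%.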

COc1cc2cc(C(=O)CCC(=O)O)sc2cc1OC + Cc1cccc(N(C)C(=O)C2C(O)CCN2c2nc(C)cc(C(F)(F)F)c2C#N)c1
> 10 µM: IC50 (second compound 0.0316 µM) | IC50 (second compound 0.1 µM) | IC50 (second compound 0.316 µM) | IC50 (second compound 1 µM) | IC50 (second compound 3.16 µM) | IC50 (second compound 10 µM)
inactive: viability, T/C [1] 105% | viability, T/C [2] 102% | viability, T/C [3] 96.3% | viability, T/C [4] 113% | viability, T/C [5] 111% | viability, T/C [6] 109% | viability, T/C [7] 98.6% | viability, T/C [8] 96% | viability, T/C [9] 104% | viability, T/C [10] 101% | viability, T/C [11] 106% | viability, T/C [12] 101% | viability, T/C [13] 102% | viability, T/C [14] 115% | viability, T/C [15] 99.9% | viability, T/C [16] 110% | viability, T/C [17] 113% | viability, T/C [18] 104% | viability, T/C [19] 105% | viability, T/C [20] 109% | viability, T/C [21] 105% | viability, T/C [22] 112% | viability, T/C [23] 110% | viability, T/C [24] 103% | viability, T/C [25] 105% | viability, T/C [26] 116% | viability, T/C [27] 109% | viability, T/C [28] 95% | viability, T/C [29] 96.1% | viability, T/C [30] 97.4% | viability, T/C [31] 102% | viability, T/C [32] 95.5% | viability, T/C [33] 103% | viability, T/C [34] 102% | viability, T/C [35] 102% | viability, T/C [36] 101%

O=C(Nc1ccc(O)c(NS(=O)(=O)c2ccc(F)cc2)c1)c1ccc(-c2ccccc2)cc1 + Nc1ccc(C#CCN(C(=O)Cc2ncc(C(F)(F)F)cc2C(F)(F)F)c2ccc(F)cc2)nn1
8.49 µM: IC50 (second compound 0.1 µM)
8.65 µM: IC50 (second compound 0.316 µM)
> 10 µM: IC50 (second compound 10 µM)
9.34 µM: IC50 (second compound 1 µM)
inactive: viability, T/C [1] 104% | viability, T/C [2] 119% | viability, T/C [3] 97.4% | viability, T/C [4] 98.2% | viability, T/C [5] 97.3% | viability, T/C [6] 46.1% | viability, T/C [7] 102% | viability, T/C [8] 99.8% | viability, T/C [9] 91.4% | viability, T/C [10] 101% | viability, T/C [11] 95.6% | viability, T/C [12] 42.4% | viability, T/C [13] 108% | viability, T/C [14] 88.4% | viability, T/C [15] 107% | viability, T/C [16] 91.8% | viability, T/C [17] 85.9% | viability, T/C [18] 44.9% | viability, T/C [19] 108% | viability, T/C [20] 94.5% | viability, T/C [21] 95.7% | viability, T/C [22] 97.5% | viability, T/C [23] 87.3% | viability, T/C [24] 47.2% | viability, T/C [25] 106% | viability, T/C [26] 92.1% | viability, T/C [27] 92.7% | viability, T/C [28] 86.8% | viability, T/C [29] 79.9% | viability, T/C [30] 45.1% | viability, T/C [31] 83.2% | viability, T/C [32] 92.4% | viability, T/C [33] 88% | viability, T/C [34] 76% | viability, T/C [35] 74.7% | viability, T/C [36] 50.6%
8.68 µM: IC50 (second compound 3.16 µM)
9.16 µM: IC50 (second compound 0.0316 µM)

COc1cc2cc(C(=O)CCC(=O)O)sc2cc1OC + Nc1ccc(C#CCN(C(=O)Cc2ncc(C(F)(F)F)cc2C(F)(F)F)c2ccc(F)cc2)nn1
> 10 µM: IC50 (second compound 0.0316 µM) | IC50 (second compound 0.1 µM) | IC50 (second compound 0.316 µM) | IC50 (second compound 1 µM) | IC50 (second compound 3.16 µM) | IC50 (second compound 10 µM)
inactive: viability, T/C [1] 99% | viability, T/C [2] 97.8% | viability, T/C [3] 85.9% | viability, T/C [4] 94% | viability, T/C [5] 111% | viability, T/C [6] 106% | viability, T/C [7] 96.9% | viability, T/C [8] 83.8% | viability, T/C [9] 82.3% | viability, T/C [10] 105% | viability, T/C [11] 111% | viability, T/C [12] 102% | viability, T/C [13] 99.3% | viability, T/C [14] 102% | viability, T/C [15] 90.5% | viability, T/C [16] 86.3% | viability, T/C [17] 97.5% | viability, T/C [18] 102% | viability, T/C [19] 77.2% | viability, T/C [20] 94.6% | viability, T/C [21] 92.4% | viability, T/C [22] 91.4% | viability, T/C [23] 94.7% | viability, T/C [24] 93.4% | viability, T/C [25] 109% | viability, T/C [26] 87.8% | viability, T/C [27] 97.4% | viability, T/C [28] 102% | viability, T/C [29] 100% | viability, T/C [30] 115% | viability, T/C [31] 104% | viability, T/C [32] 88% | viability, T/C [33] 92.6% | viability, T/C [34] 99.4% | viability, T/C [35] 86.7% | viability, T/C [36] 87.1%
